According to ChEMBL document CHEMBL1201862, “PubChem BioAssay data set” (2004):
Activity calls are given as the source filed them.

Legend:
Beta-lactamase [1] = target: T1, Beta-lactamase (Pseudomonas aeruginosa, UniProt Q79MP6)
Beta-lactamase [2] = target: T2, Beta-lactamase (Salmonella choleraesuis (strain SC-B67), UniProt Q5J463)
[3] = intracellular Trypanosoma cruzi inhibitors in host cells – cell-based, plate reader, cherry-pick samples, set 3, dose response (AID 651818); format: functional;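 note: compounds incubated with infected cells for about four days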
HeLa = assay: viability loss in HeLa cells – cell-based, ATP luminescence, cherry-pick samples, cytotoxicity control, dose response (AID 687004); format: functional; conditions: Homo sapiens
HEK293 = assay: viability loss in HEK293T cells – cell-based, ATP luminescence, cherry-pick samples, cytotoxicity control, dose response (AID 687005); format: functional; conditions: Homo sapiens;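 note: cells exposed to compound for 48 hours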
[4] = HEK293 Cytotoxicity Assay Measured in Cell-Based System Using Plate Reader - 7071-01_Inhibitor_Dose_CherryPick_Activity_Set2.; format: functional
Exodeoxyribonuclease V = target: T3, Exodeoxyribonuclease V (Escherichia coli (strain K12), UniProt P04993+P07648+P08394); assay: RecBCD inhibition via phage-restricted bacterial growth – absorbance, V66 E. coli, mutant T4 phage, counter-screen for AddAB inhibitor project, dose response (AID 492957); format: functional, cell-based, Escherichia coli str. K-12 substr. MG1655
T3 sequence (P04993 whole entry): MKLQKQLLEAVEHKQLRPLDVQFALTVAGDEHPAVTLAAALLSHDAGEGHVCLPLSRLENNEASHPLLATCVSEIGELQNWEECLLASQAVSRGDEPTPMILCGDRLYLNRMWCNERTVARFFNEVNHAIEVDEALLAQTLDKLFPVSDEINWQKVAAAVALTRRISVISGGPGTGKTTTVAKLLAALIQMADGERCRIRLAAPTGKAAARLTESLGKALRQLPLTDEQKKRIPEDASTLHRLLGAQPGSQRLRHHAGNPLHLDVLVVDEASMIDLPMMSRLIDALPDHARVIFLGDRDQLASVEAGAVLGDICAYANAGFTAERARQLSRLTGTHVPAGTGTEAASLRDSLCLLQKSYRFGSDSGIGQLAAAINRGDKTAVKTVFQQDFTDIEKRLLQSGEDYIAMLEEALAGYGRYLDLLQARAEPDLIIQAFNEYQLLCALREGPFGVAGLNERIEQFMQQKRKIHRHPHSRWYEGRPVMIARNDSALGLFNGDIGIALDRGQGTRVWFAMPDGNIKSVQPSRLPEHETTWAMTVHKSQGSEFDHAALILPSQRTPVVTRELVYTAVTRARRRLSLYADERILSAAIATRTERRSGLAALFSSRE
T3 sequence (P07648 whole entry): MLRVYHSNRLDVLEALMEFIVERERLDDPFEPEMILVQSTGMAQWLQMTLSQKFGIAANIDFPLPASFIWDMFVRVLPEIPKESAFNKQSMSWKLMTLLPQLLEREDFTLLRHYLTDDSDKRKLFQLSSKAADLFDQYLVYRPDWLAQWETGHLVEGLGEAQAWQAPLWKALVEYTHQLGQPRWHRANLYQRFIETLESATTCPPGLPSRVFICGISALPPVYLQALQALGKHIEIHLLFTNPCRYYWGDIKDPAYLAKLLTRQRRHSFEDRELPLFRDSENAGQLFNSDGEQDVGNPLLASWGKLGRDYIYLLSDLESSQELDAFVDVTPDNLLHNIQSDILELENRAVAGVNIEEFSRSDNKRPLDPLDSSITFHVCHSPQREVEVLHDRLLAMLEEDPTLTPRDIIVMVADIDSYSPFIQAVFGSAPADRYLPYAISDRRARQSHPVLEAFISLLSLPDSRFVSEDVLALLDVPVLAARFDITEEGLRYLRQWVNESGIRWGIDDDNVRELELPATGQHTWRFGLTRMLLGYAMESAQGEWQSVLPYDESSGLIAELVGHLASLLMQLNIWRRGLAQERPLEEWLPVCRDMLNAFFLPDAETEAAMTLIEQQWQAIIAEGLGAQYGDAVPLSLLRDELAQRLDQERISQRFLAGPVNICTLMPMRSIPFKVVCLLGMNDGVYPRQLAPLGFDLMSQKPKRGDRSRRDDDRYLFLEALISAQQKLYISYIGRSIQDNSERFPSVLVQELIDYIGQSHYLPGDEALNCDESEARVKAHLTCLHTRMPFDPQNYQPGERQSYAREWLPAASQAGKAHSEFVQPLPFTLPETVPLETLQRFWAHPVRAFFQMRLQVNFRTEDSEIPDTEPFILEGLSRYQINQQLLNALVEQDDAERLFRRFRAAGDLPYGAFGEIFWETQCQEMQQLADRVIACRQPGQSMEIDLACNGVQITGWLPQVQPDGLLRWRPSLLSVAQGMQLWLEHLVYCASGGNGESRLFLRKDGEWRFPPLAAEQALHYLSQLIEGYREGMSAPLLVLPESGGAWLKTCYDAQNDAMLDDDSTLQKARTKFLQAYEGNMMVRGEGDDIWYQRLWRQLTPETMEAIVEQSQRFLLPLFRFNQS
T3 sequence (P08394 whole entry): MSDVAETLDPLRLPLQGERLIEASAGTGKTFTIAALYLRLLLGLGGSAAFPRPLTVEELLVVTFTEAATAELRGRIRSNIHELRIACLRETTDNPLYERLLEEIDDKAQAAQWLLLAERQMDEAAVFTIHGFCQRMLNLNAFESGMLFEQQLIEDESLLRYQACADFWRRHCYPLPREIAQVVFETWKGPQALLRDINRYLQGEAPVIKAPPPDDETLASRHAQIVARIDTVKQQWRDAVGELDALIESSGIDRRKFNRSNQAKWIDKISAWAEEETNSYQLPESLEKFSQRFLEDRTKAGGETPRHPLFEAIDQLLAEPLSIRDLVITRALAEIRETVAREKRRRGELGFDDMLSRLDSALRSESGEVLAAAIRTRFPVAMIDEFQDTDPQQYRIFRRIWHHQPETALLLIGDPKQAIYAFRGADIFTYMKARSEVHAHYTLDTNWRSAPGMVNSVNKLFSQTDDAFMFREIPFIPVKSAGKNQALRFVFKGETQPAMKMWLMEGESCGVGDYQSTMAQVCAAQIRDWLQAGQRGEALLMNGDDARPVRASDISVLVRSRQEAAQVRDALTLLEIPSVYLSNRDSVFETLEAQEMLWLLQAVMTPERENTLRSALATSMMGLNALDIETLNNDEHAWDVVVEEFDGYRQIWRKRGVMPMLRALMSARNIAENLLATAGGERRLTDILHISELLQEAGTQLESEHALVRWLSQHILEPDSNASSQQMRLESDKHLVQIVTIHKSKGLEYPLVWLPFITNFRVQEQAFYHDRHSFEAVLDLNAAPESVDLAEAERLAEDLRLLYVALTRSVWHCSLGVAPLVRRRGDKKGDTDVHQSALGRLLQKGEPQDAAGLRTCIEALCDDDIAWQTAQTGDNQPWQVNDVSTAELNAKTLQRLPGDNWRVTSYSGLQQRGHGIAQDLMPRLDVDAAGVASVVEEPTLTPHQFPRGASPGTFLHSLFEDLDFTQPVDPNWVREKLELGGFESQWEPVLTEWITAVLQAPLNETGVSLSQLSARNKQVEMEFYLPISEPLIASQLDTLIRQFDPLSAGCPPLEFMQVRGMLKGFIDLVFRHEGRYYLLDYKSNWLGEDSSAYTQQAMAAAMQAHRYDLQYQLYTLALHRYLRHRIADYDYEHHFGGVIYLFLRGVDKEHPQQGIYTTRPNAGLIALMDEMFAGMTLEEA

[5] = Counterscreen for AddAB inhibitors: absorbance-based bacterial cell-based high throughput dose response assay for inhibitors of bacterial viability. [Related pubchem assays (depositor defined):AID435030, AID449728, AID449731, AID488942, AID488955, AID488956]; format: functional
Albumin = Albumin (Bos taurus, UniProt P02769); assay: Counterscreen for inhibitors of T-cell receptor (TCR)-CD3 interaction: Fluorescence-based biochemical high throughput dose response assay to identify inhibitors of T-cell receptor (TCR)-CD3 interaction using a TAMRA-labeled BSA probe.; format: functional
[6] = target: T4, Scavenger receptor class B member 1 (Mus musculus, UniProt Q61009); assay: mouse SR-BI DiI-HDL transfer blockers – ldlA[mSR-BI] CHO cells, fluorescence plate reader, dry powder, set 9, dose response (AID 623880); format: functional, cell-based
T4 sequence (Q61009 whole entry): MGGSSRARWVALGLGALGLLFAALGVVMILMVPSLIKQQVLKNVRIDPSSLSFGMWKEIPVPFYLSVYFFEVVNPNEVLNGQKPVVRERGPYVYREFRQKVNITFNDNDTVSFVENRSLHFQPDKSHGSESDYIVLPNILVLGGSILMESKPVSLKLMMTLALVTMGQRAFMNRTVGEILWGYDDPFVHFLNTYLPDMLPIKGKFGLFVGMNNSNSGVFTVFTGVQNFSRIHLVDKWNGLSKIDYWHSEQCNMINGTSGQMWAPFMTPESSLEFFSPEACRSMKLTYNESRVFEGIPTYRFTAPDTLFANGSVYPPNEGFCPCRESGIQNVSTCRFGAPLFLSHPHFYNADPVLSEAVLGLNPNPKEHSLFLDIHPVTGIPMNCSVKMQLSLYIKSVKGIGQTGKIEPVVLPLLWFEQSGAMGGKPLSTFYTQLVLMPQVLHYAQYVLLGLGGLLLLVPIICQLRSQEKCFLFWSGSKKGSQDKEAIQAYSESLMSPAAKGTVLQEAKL

[7] = cell viability loss, ATP luminescence – CellTiter-Glo, 24 h, powder samples, set 7, cytotoxicity control for SR-BI HDL uptake inhibitor project, dose response (AID 624026); format: functional, cell-based
[8] = target: T4, Scavenger receptor class B member 1; assay: blockers of DiI-HDL lipid transfer via SR-BI – cell-based, ldlA[mSR-BI] CHO, DiI fluorescence, dry powder, set 10, dose response (AID 624029); format: functional
[9] = luciferase reporter signal suppression in cells – H4 neuroglioma cells, luminescence, dose response (AID 1990); format: functional, cell-based
[10] = Luminescence Cell-Based Dose Response HTS to Identify Inhibitors of 5'UTR Stem-Loop Driven Prion Protein mRNA Translation in H4 Neuroglioblastoma Cells. [Related pubchem assays: 1827 (Project Summary), 1813 (Primary HTS)]; format: functional
[11] = target: T5, Voltage-gated N-type calcium channel alpha-1B subunit/Amyloid beta A4 precursor protein-binding family A member 1 (Homo sapiens, UniProt Q00975+Q02410); format: protein assay
T5 sequence (Q00975 whole entry): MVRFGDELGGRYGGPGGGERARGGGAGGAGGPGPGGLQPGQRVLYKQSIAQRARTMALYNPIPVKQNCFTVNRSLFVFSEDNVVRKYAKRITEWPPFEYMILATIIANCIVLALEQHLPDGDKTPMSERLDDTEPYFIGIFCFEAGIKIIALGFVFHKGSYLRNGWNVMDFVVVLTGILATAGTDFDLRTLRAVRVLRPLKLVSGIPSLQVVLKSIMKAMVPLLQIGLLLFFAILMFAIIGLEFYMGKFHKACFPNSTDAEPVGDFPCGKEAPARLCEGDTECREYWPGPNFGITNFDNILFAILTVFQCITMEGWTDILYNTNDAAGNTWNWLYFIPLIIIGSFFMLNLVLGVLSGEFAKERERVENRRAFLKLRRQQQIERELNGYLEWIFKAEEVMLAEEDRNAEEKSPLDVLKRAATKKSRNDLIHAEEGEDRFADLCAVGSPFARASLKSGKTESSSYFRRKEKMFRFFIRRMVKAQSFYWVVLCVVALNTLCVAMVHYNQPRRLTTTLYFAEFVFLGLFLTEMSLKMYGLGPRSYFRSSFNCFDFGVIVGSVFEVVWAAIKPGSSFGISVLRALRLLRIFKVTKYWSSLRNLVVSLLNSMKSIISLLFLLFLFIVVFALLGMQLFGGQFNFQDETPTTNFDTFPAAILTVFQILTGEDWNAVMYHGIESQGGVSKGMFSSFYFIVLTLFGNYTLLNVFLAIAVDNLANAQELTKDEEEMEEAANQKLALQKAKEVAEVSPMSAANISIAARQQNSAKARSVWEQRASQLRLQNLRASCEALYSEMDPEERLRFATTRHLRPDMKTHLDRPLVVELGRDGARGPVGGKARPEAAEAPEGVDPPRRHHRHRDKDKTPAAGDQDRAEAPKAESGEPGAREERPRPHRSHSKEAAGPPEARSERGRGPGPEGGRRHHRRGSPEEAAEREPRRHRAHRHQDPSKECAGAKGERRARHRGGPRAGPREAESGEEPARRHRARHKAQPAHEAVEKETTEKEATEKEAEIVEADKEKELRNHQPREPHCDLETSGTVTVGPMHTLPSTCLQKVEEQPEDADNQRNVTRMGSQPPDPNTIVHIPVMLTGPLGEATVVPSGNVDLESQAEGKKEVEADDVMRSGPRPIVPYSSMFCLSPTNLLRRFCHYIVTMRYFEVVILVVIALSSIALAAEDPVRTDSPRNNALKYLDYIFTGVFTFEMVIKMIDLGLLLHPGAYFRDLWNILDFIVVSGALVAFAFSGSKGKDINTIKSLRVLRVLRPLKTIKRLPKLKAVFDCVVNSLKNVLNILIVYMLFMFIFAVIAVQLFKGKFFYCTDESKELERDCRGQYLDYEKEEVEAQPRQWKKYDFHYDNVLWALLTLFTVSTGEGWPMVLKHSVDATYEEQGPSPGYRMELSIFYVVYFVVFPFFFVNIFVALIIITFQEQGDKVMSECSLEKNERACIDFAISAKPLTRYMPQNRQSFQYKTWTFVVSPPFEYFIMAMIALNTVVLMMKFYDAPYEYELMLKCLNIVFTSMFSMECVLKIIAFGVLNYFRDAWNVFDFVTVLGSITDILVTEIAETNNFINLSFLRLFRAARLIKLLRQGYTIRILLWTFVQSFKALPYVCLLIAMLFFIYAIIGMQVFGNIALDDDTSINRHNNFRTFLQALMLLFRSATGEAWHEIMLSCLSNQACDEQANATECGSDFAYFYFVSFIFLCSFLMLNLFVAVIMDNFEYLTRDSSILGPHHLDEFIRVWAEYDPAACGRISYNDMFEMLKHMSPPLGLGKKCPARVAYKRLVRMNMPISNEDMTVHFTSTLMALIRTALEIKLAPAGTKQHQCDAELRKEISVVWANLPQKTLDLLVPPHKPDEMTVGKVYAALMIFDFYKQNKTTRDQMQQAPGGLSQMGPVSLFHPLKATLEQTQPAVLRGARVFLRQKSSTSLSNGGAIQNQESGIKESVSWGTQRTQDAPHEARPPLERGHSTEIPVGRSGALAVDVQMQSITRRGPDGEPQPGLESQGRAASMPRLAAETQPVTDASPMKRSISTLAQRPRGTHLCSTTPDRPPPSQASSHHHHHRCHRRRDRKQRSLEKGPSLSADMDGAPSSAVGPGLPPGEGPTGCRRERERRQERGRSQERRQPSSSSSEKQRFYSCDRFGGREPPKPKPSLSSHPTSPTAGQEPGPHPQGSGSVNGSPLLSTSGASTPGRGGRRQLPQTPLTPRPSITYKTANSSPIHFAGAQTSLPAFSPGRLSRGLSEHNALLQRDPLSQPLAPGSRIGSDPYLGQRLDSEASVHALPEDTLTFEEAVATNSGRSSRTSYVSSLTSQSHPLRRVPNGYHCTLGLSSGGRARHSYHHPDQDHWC
T5 sequence (Q02410 whole entry): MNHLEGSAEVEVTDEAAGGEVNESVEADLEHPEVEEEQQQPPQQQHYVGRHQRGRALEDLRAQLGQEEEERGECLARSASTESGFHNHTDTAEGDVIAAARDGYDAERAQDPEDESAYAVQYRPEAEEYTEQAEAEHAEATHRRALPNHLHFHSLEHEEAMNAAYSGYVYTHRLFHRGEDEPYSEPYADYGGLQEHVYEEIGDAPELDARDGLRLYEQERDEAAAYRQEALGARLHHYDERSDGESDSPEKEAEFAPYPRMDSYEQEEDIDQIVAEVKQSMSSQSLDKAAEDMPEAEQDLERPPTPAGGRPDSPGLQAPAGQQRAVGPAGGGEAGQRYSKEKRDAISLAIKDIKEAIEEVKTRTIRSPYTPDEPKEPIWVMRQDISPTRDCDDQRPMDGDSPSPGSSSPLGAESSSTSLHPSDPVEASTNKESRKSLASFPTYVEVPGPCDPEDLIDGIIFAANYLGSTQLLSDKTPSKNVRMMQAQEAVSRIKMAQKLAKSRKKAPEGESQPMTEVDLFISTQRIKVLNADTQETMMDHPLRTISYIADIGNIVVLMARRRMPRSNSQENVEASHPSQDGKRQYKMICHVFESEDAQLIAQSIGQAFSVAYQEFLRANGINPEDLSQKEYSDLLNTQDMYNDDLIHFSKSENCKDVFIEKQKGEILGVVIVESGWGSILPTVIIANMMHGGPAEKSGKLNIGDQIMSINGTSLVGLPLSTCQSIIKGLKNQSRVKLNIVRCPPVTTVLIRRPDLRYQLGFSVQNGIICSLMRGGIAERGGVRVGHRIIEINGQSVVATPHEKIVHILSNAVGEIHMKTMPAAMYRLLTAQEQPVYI

[12] = alpha-synuclein stem-loop luciferase translation blockers – H4 neuroglioma cells, luminescence, confirmation (AID 1988); format: functional, cell-based
[13] = target: T5, Voltage-gated N-type calcium channel alpha-1B subunit/Amyloid beta A4 precursor protein-binding family A member 1; format: protein assay; remark: listed apart in the source
[14] = viability loss in HEK293T cells – cell-based, cherry-picks, cytotoxicity control for HIV Vif inhibitor project, dose response (AID 652208); format: functional
[15] = target: Fructose-bisphosphate aldolase (Mycobacterium tuberculosis, UniProt P9WQA3); assay: Fluorescence-based biochemical high throughput dose response assay for inhibitors of the fructose-bisphosphate aldolase (FBA) of M. tuberculosis.; format: functional
Chain of Fructose-bisphosphate aldolase (P9WQA3 whole entry, the tested form may be a part): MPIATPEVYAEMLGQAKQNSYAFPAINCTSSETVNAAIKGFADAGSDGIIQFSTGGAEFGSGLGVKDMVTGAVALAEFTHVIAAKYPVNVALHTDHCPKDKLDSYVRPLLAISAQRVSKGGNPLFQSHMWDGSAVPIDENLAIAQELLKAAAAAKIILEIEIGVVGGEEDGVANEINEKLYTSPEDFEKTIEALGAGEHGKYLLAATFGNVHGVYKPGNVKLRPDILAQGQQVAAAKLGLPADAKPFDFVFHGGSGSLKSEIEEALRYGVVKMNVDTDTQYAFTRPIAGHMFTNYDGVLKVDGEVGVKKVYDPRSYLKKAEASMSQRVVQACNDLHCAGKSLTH

[16] = target: Photoreceptor-specific nuclear receptor (Homo sapiens, UniProt Q9Y5X4); format: functional, cell-based;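 note: CHO-S cells with Gal4-NCOR and VP16-NR2E3 two-hybrid luciferase reporter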
[17] = blockers of HIV-1 envelope-mediated cell-cell fusion – cherry-pick, dose response (AID 652057); format: functional, cell-based
[18] = viability loss in CEM21 cells – cell-based, CellTiter-Glo luminescence, cherry-picked, cytotoxicity control for viral fusion inhibitor project, dose response (AID 652042); format: functional;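 note: potency for signal decrease meaning cytotoxicity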
[19] = blockers of HIV-1 ZM109 envelope-driven cell-cell fusion – HeLa effector, CEM target cells, luciferase, cherry-pick, dose response (AID 652058); format: functional, cell-based;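 note: luciferase signal from HIV-1 Env mediated cell-cell fusion of effector and target cells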
Paired box protein Pax-8 = Paired box protein Pax-8 (Homo sapiens, UniProt Q06710); assay: PAX8 transcriptional activity inhibition in RMG-I – RMG-I cells, luciferase, cherry-pick, dose response (AID 687027); format: functional, cell-based;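 note: luciferase reporter driven by Pax8 target thyroperoxidase promoter measured by SteadyGlo luminescence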
[20] = off-target signal loss in HeLa-CEM21 co-culture – HeLa F-luc CTL cells, cherry-picked, counter-screen for HIV-1 Env fusion inhibitor project, dose response (AID 652040); format: functional, cell-based;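 note: potency for signal decrease marking cytotoxic or nonspecific inhibition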
[21] = HIV-1 AD8 envelope cell-cell fusion blockers – cherry-pick, dose response (AID 652062); format: functional, cell-based;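 note: luciferase signal from cell-cell fusion driven by HIV-1 clade B AD8 Env; potency is for inhibitors of fusion seen as a drop in luminescence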
[22] = CMV-driven luciferase expression suppression in HEK293 – cell-based, luminescence, dry powder, counter-screen for Pax8 inhibitor project, dose response (AID 743020); format: functional
[23] = target: Nuclear receptor subfamily 5 group A member 2 (Homo sapiens, UniProt O00482); format: functional, cell-based;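 note: HEK293T cells transfected with LRH-1 and a StAR promoter luciferase reporter; potency for inhibitors that lower LRH-1 driven reporter light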
Steroidogenic factor 1 = Steroidogenic factor 1 (Homo sapiens, UniProt Q13285); assay: Counterscreen for inverse agonists of the liver receptor homolog-1 (LRH-1; NR5A2): Luminescence-based cell-based high throughput dose response assay to identify inverse agonists of the Steroidogenic Factor 1 Nuclear Receptor (SF1; NR5A1).; format: functional
Chain of Steroidogenic factor 1 (Q13285 whole entry): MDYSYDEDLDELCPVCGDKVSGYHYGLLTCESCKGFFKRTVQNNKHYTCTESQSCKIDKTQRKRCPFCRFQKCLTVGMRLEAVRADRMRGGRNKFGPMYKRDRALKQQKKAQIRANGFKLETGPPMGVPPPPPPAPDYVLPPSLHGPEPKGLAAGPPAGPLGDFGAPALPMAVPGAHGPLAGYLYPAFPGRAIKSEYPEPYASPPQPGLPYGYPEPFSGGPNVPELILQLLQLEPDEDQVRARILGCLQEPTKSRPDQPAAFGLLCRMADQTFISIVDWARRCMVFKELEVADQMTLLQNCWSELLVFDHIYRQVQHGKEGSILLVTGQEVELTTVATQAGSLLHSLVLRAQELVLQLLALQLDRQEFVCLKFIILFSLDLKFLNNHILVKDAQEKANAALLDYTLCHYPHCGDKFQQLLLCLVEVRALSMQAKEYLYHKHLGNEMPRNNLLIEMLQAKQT

[24] = nonselective StAR promoter luciferase inhibitors – cell-based, luminescence, luciferase reporter, counter-screen for LRH-1 inverse agonist project, dose response (AID 651969); format: functional
Beta-lactamase [25] = target: T2, Beta-lactamase; assay: Epi-absorbance-based counterscreen for selective VIM-2 inhibitors: dose response biochemical high throughput screening assay to identify inhibitors of TEM-1 serine-beta-lactamase.
Beta-lactamase [26] = target: T1, Beta-lactamase; assay: inhibition of IMP-1 beta-lactamase activity – biochemical, epi-absorbance, selectivity assay for VIM-2 inhibitor project, dose response (AID 1920)
Beta-lactamase [27] = target: T1, Beta-lactamase; assay: […] counterscreen for selective VIM-2 inhibitors: dose response biochemical high throughput screening assay to identify inhibitors of IMP-1 metallo-beta-lactamase.

T1 sequence (Q79MP6 whole entry): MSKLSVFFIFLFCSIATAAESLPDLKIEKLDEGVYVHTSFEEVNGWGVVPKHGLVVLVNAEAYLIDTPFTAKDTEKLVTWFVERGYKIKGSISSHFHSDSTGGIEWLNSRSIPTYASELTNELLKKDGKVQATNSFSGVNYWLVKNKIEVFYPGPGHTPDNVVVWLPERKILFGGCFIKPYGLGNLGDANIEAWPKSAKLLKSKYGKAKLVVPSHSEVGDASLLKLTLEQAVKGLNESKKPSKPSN
T2 sequence (Q5J463 whole entry): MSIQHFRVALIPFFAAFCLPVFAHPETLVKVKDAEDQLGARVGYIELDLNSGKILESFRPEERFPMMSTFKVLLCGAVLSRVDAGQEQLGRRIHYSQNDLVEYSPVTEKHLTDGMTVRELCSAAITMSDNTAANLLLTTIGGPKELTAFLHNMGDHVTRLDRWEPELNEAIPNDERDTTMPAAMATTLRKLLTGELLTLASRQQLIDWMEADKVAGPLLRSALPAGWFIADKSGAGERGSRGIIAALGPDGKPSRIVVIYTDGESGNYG

CCN(CC)c1ccc2cc(C=O)c(=O)oc2c1
IC50 (Beta-lactamase [1]): 57.9 µM (inactive)
IC50 (Beta-lactamase [2]): 26.7 µM (inactive)

C[C@H](CO)N1C[C@H](C)[C@H](CN(C)Cc2ccc(-c3ccccc3)cc2)Oc2c(NC(=O)c3ccncc3)cccc2C1=O
AC50 [3]: 0.08 µM (active)
AC50 (HeLa): > 52 µM (inactive)
AC50 (HEK293): 14.2 µM (active)
AC50 [4]: 14.2 µM (active)

COc1ccc(/C=C2\SC(=O)N(CC(=O)NNC(=O)c3ccccc3O)C2=O)cc1OC
IC50 (Exodeoxyribonuclease V): > 119 µM (inactive)
IC50 [5]: > 119 µM (inactive)
IC50 (Albumin): > 94.1 µM (inactive)

CC(C)(C)OC(=O)N1CCN(c2ccc(NC(=O)c3cc([N+](=O)[O-])ccc3Cl)cc2)CC1
AC50 [6]: 0.503 µM (active)
AC50 [7]: > 70 µM (inactive)
AC50 [8]: 0.953 µM (active)

CCOC(=O)c1cc(-c2ccccc2)sc1NC(=O)COC(=O)c1cccc(S(N)(=O)=O)c1
EC50 [9]: 13.4 µM (active)
EC50 [10]: > 120 µM (not active)
IC50 [11]: 4.51 µM (active)
EC50 [12]: 12.8 µM (active)
IC50 [13]: > 50 µM (inactive)
AC50 [14]: 21.3 µM (active)

CCCNC(=O)c1c(N)n(-c2ccc(S(N)(=O)=O)cc2)c2nc3ccccc3nc12
IC50 [15]: 0.673 µM (active)

CCC1(O)C(=O)OCc2c1cc1n(c2=O)Cc2cc3c(N)cccc3nc2-1 (stereo not drawn) [RS-9-Aminocamptothecin]
IC50 [16]: 1.83 µM (active)
AC50 [17]: < 0.26 µM (active)
AC50 [18]: 2.67 µM (active)
AC50 [19]: 0.857 µM (active)
AC50 (Paired box protein Pax-8): < 0.26 µM (active)
AC50 [20]: < 0.26 µM (active)
AC50 [21]: 0.368 µM (active)
AC50 [22]: < 6.17 µM (active)

COc1cc(/C=N/n2nnnc2N)ccc1OCc1c(C)no[n+]1[O-]
IC50 [23]: 12.4 µM (inactive)
IC50 (Steroidogenic factor 1): 6.23 µM (active)
IC50 [24]: 35.9 µM (inactive)

CC(=O)c1ccc(-c2ccc(Cn3c(C)nc4cc(N)c(C)nc43)cc2)cc1
IC50 (Beta-lactamase [25]): > 59.6 µM (inactive)
IC50 (Beta-lactamase [26]): > 59.6 µM (inactive)
IC50 (Beta-lactamase [27]): > 59.6 µM (inactive)
